Source: ChEMBL document CHEMBL3880421, “Indazole compounds and pharmaceutical compositions for inhibiting protein kinases, and methods for their use” (2003)

Test: Antiproliferative activity against VEGF-stimulated HUVEC cells assessed as reduction in cell viability at 10 nM preincubated for 1 hr followed by addition of VEGF measured after 72 hrs by MTT assay
Format: functional
Details: Homo sapiens

Structure (SMILES) | inhibition at 0.01 µM [%]
COc1cccc(/C=C/C(=O)Nc2cccc(Nc3ccc4c(/C=C/c5ccccc5)n[nH]c4c3)c2)c1 | 30
O=C1C[C@H](C(=O)Nc2cccc(Oc3ccc4c(/C=C/c5ccccc5)n[nH]c4c3)c2)NC(=O)N1 | -6
CC(C)(C)c1ccc(C(=O)Nc2cccc(Oc3ccc4c(/C=C/c5ccccc5)n[nH]c4c3)c2)o1 | 52
O=C(CC1CC2CCC1C2)Nc1cccc(C(=O)c2ccc3c(/C=C/c4ccccc4)n[nH]c3c2)c1 (stereo unspecified) | 75
O=C(Cc1cc(F)ccc1F)Nc1cccc(Nc2ccc3c(/C=C/c4ccccc4)n[nH]c3c2)c1 | 64
Cc1cc(C(=O)Nc2cccc(Nc3ccc4c(/C=C/c5ccccc5)n[nH]c4c3)c2)n[nH]1 | 86
C[C@@H](CC(=O)Nc1cccc(Nc2ccc3c(/C=C/c4ccccc4)n[nH]c3c2)c1)c1ccccc1 | 27
O=C(Nc1cccc(C(=O)c2ccc3c(/C=C/c4ccccc4)n[nH]c3c2)c1)c1ccc(=O)oc1 | -62
CC1(C)C(C(=O)Nc2cccc(C(=O)c3ccc4c(/C=C/c5ccccc5)n[nH]c4c3)c2)C1(C)C | 51
COC1CCCC(C(=O)Nc2cccc(Oc3ccc4c(/C=C/c5ccccc5)n[nH]c4c3)c2)C1 (stereo unspecified) | 91
CC(C)[C@@H](O)C(=O)Nc1cccc(C(=O)c2ccc3c(/C=C/c4ccccc4)n[nH]c3c2)c1 | 33
CC(C)c1ccccc1C(=O)Nc1cccc(Nc2ccc3c(/C=C/c4ccccc4)n[nH]c3c2)c1 | 79
CC(C)(C)[C@@H](O)C(=O)Nc1cccc(Nc2ccc3c(/C=C/c4ccccc4)n[nH]c3c2)c1 | 10
CCC(C(=O)Nc1cccc(Nc2ccc3c(/C=C/c4ccccc4)n[nH]c3c2)c1)c1ccccc1C (stereo unspecified) | -3
CN(C)CCCC(=O)Nc1cccc(Nc2ccc3c(/C=C/c4ccccc4)n[nH]c3c2)c1 | 30
O=C(Nc1cccc(Nc2ccc3c(/C=C/c4ccccc4)n[nH]c3c2)c1)C1CCCO1 (stereo unspecified) | 23

Structure (SMILES) | inhibition at 0.01 µM [%]
O=C(Nc1cccc(Oc2ccc3c(/C=C/c4ccccc4)n[nH]c3c2)c1)C1=C[C@@H](O)[C@@H](O)[C@H](O)C1 | 25
CC(C)(C)c1ccc(C(=O)Nc2cccc(C(=O)c3ccc4c(/C=C/c5ccccc5)n[nH]c4c3)c2)o1 | 71
C[C@@]12C[C@H]3C[C@H]1C[C@@]3(C(=O)Nc1cccc(Nc3ccc4c(/C=C/c5ccccc5)n[nH]c4c3)c1)C2 | 15
Cc1cc(C(=O)Nc2cccc(Nc3ccc4c(/C=C/c5ccccc5)n[nH]c4c3)c2)oc(=O)c1 | -8
Cn1cnc(CC(=O)Nc2cccc(Nc3ccc4c(/C=C/c5ccccc5)n[nH]c4c3)c2)c1 | -17
CN(C)CCCC(=O)Nc1cccc(Oc2ccc3c(/C=C/c4ccccc4)n[nH]c3c2)c1 | 96
CN1CSCCC1C(=O)Nc1cccc(Oc2ccc3c(/C=C/c4ccccc4)n[nH]c3c2)c1 (stereo unspecified) | 23
O=C(CCN1CCCCC1)Nc1cccc(Nc2ccc3c(/C=C/c4ccccc4)n[nH]c3c2)c1 | 30
O=C(/C=C/C1C[C@H]2C=C[C@H]1C2)Nc1cccc(C(=O)c2ccc3c(/C=C/c4ccccc4)n[nH]c3c2)c1 (stereo partly specified) | 37
O=C(Cc1cc(F)ccc1F)Nc1cccc(C(=O)c2ccc3c(/C=C/c4ccccc4)n[nH]c3c2)c1 | 80
O=C(Nc1cccc(Oc2ccc3c(/C=C/c4ccccc4)n[nH]c3c2)c1)C1C[C@H]2C[C@@H]1CCC2O (stereo partly specified) | 52
CC(C)CC(=O)C(=O)Nc1cccc(Nc2ccc3c(/C=C/c4ccccc4)n[nH]c3c2)c1 | 11
CCO/C(C)=C/C(=O)Nc1cccc(Oc2ccc3c(/C=C/c4ccccc4)n[nH]c3c2)c1 | 87
O=C(c1cccc(NC(=O)C2C[C@H]3C=C[C@H]2C3)c1)c1ccc2c(/C=C/c3ccccc3)n[nH]c2c1 (stereo partly specified) | 44
Cc1cc(C(=O)Nc2cccc(Oc3ccc4c(/C=C/c5ccccc5)n[nH]c4c3)c2)n[nH]1 | 150
